We go through 14 compounds from patent publication US11458132B2, “Quinolin-2(1H)-one inhibitors of Late SV40 Factor” (TRUSTEES OF BOSTON UNIVERSITY, priority 2020, dated 2022).

Data set [1] in a line: Plasma protein binding (PPB), mouse. Type of data set: in vitro ADME.
A further data set concerns Huh7 cells. Kind of data set: Growth inhibition curves in Huh7 cells. The class given is cell-based. The note with it: Homo sapiens, Huh-7.
Data set [2] can be described thus: Plasma protein binding (PPB), human. The class given is in vitro ADME.
In a further data set the target is T1, LSF and β-catenin (Homo sapiens, UniProt Q12800).
T1 construct: In both these cell lines, LSF co-immunoprecipitated with β-catenin; endogenous in cells; host or cells: HT-29 and HCT-116
T1 sequence (Q12800 1-502): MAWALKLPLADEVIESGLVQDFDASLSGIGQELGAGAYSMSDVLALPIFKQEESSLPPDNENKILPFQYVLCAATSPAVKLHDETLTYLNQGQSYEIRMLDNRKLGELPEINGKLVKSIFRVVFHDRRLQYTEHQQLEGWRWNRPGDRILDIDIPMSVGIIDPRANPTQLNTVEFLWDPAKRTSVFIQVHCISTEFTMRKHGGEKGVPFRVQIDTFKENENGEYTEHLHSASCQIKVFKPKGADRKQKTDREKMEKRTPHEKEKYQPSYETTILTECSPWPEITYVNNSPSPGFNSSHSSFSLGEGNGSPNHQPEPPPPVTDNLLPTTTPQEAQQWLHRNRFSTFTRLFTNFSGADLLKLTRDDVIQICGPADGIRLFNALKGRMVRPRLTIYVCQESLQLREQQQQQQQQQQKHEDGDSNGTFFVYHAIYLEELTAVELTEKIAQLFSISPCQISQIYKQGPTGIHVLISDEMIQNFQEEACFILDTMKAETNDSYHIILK
In words: Immunoprecipitation of β-catenin probed for LSF in CRC cells. Type of data set: cell-based. The note with it: 1 μM, 16 hours, HT-29 and HCT-116 cells. The source says:
Immunoprecipitation: The CRC cells were harvested. Proteins of interest were immunoprecipitated using the indicated antibodies at 1:100 concentration. The eluents were resolved by SDS polyacrylamide gel electrophoresis and probed with the indicated antibodies. All the antibodies for immunoblot and immunoprecipitation were acquired from Cell Signaling and were used at the recommended concentrations.

Data set [3] relates to FH-B cells. Kind of data set: Microtubule sedimentation assay. The class given is cell-based, human. The procedure:
(§1) Cell lysate preparation: For microtubule sedimentation assays, cells were treated as indicated in the figure legends, washed with PBS and incubated in 250 μl of microtubule sedimentation assay lysis buffer (100 mM PIPES pH 6.8, 2 M glycerol, 2 mM EGTA, 5 mM MgCl2, 0.1% Triton X-100) supplemented with 1 μM taxol, protease inhibitor cocktail (1:200, Abcam, ab201111) and phosphatase inhibitor cocktail (1:100, Abcam, ab201115) for 20 minutes at 37° C. Two hundred μl of scraped lysate was centrifuged at 21,000×g for 10 minutes at room temperature. Supernatants were saved as soluble fractions. Pellets were resuspended in 200 μl RIPA buffer (50 mM Tris HCl pH 8.0, 150 mM NaCl, 1% IGEPAL CA630, 0.05% deoxycholic acid) supplemented with 1.05% SDS, protease inhibitor cocktail (1:200) and phosphatase inhibitor cocktail (1:100) and incubated at 100° C. for 15 minutes. Pellet suspensions were centrifuged as before and supernatants were saved as pellet fractions.
(§2) Gel electrophoresis and immunoblotting: Microtubule sedimentation fractions and MLC2 analysis samples were separated by electrophoresis through tris-glycine and tricine polyacrylamide gels, respectively, which were transferred to PVDF membranes. Membranes with microtubule sedimentation fractions and MLC2 analysis samples were blocked in 5% milk in TBST and in 5% BSA in TBST, respectively. After overnight incubation with primary antibody at 4° C., the membranes were washed and incubated with secondary antibody for 1 hour at room temperature. Primary antibodies included anti-α-tubulin (1:2,000, Thermo Fisher Scientific, PA529444), anti-acetylated tubulin (1:1,000, Sigma-Aldrich, T7451), anti-phospho MYL9 (1:200, Thermo Fisher Scientific, PA517727), and anti-β-actin (1:5,000, Sigma-Aldrich, A1978). Secondary antibodies included Goat anti-Rabbit HRP (Thermo Fisher Scientific, 31460; 1:10,000 for anti-α-tubulin; 1:5,000 for anti-phospho MYL9), and Goat anti-Mouse HRP (Thermo Fisher Scientific, 62-6520; 1:5,000 for anti-acetylated tubulin; 1:10,000-1:20,000 for anti-β-actin). Membranes were placed into Pierce™ ECL Western Blotting Substrate (Thermo Fisher Scientific, 32106). Autoradiography film was exposed to each membrane for various times to ensure acquisition of non-saturated exposures. Band intensities were quantified from scanned films by densitometry using ImageJ.

In data set [4] the test system is RPE cells. In words: Microtubule sedimentation assay. Type of data set: cell-based. The method, then:
as §1, §2

For data set [5], the system named is RPE cells. In words: Wound healing assay. The class given is cell-based. The note with it: 4 μM FQI1 or 1 μM nocodazole, monitored 12 hours. The method, then:
Wound healing analysis: Confluent RPE cells were synchronized by incubating with 2 mM thymidine for 18-20 hours. Two intersecting lines were drawn into the confluent cells using a pipette tip. A phase-contrast image was acquired of the intersection point (“0 h” time-point) on an Olympus IX50 inverted microscope, immediately followed by treatment with the respective inhibitor and 2 mM thymidine. Phase-contrast images of the intersection point were acquired every 2 hours for 12 hours, continuing incubation at 37° C. in 5% CO2 in-between time points. Using ImageJ, the distances between each pair of neighboring vertices of the intersection point at each time-point were measured and normalized to the “0 h” sample.
RPE-hTERT Flp-In cells, propagated in DME M:F12 media with 10% fetal bovine serum at 37° C. in a 5% CO2 humidified incubator, were grown to confluence in 6-well tissue culture plates. One day prior to performing the wound healing assay, the medium was exchanged to also include 2 mM thymidine, so that the cells would stop dividing.
A cross-shaped wound was scratched into each well, and the cells imaged by phase contrast microscopy using at 4× magnification using a Olympus IX50 Inverted microscope. Then the cell media was exchanged to include vehicle (DMSO at 0.01%), 50 nM FQI2-34, 100 nM FQI2-34, or 200 nM FQI2-34; 2 mM thymidine was maintained throughout, as well. Cells were imaged again at 2 h, 4h, 6h, and 8h, in order to measure the migration of the cells into the wound.
Each of the 4 lines across the vertices of the “X” were individually measured from each set of images using ImageJ. Relative distances of cell migration into the wound were obtained by subtracting each of the lengths for 2-8 hour timepoints from the length at the 0 hour timepoint for that line and that sample. The averages of the four changes in lengths per sample were then plotted over time for each concentration of FQI2-34, from […], using Prism software. Triplicate technical replicates were performed for each concentration.

The subject of data set [6] is FH-B cells. Kind of data set: Cell spreading area / cell compaction by microscopy. The class given is cell-based, human. Conditions: 1 μM nocodazole, 30-60 minutes. The procedure:
(§3) Cells were washed as before, treated with Phalloidin-iFluor 488 Reagent (abcam, ab176753) for 1 hour in 1-5% BSA in PBS, followed by Hoechst 33342 (Thermo Fisher Scientific, H3570) for 5 minutes. Mounting medium (Fisher Scientific, P10144) and cover slips were applied onto dried cells. Individually discernible cells were imaged on an Olympus Fluoview 10i. Using ImageJ, the phalloidin channel was thresholded and area and circularity values were measured and integrated into swarmplots using Python's seaborn library.
For time lapse microscopy, FH-B cells in high μ-dishes were incubated with CellBrite™ Steady Membrane stain (Biotium, 30108-T) for 30-40 minutes in the environmental chamber of a Nikon C2 Si microscope at 37° C. and 5% CO2. Treatments were added to the cells through a syringe to reach final concentrations of 4 μM FQI1 or 0.01% DMSO. Immediately thereafter, a time-lapse series was acquired by imaging every 30 seconds for 30 minutes at 20× magnification.

Data set [7] relates to RPE cells. In words: Cell spreading area and circularity by microscopy. The class given is cell-based. The note with it: 4 μM FQI1 or 1 μM nocodazole, 1 hour. The method, then:
as §3

The mark [8] stands for this setting: 10 μM Y-27632 30 minutes, then 4 μM FQI1 30 minutes.
Setting [9] is: 4 μM FQI1 (15- and 30-minute pellets), 1 μM nocodazole or taxol 30 minutes.

What is called fraction unbound is the share of the substance not bound to proteins or other matrix. A low value points to little free substance. One may read the GI50 as the concentration that inhibits growth by half. With `CCOc1cc(N(C)C)ccc1-c1cc(=O)[nH]c2cc3c(cc12)OCCO3` [FQI2-37, 9-(4-(dimethylamino)-2-ethoxyphenyl)-2,3-dihydro-[1,4]dioxino[2,3-g]quinolin-7(6H)-one], the results for the free fraction (fraction unbound) in [1] and in data set [2] were 0.06 and 0.08, respectively. The compound further returned a GI50 with Huh7 cells of 14.2 nM. `CCCOc1cc(N(C)C)ccc1-c1cc(=O)[nH]c2cc3c(cc12)OCO3` [FQI2-134, 8-(4-(dimethylamino)-2-propoxyphenyl)-[1,3]dioxolo[4,5-g]quinolin-6(5H)-one] displayed a GI50 in the data set with Huh7 cells of 260 nM. In other words, the sub-micromolar range. Still for that read-out and setting: in the case of `CCCOc1cc(N(C)C)ccc1-c1cc(=O)[nH]c2cc3c(cc12)OCCO3` [FQI2-137, 9-(4-(dimethylamino)-2-propoxyphenyl)-2,3-dihydro-[1,4]dioxino[2,3-g]quinolin-7(6H)-one] it was 71 nM; in that of `CC(C)COc1cc(N(C)C)ccc1-c1cc(=O)[nH]c2cc3c(cc12)OCO3` [FQI2-234, 8-(4-(dimethylamino)-2-isobutoxyphenyl)-[1,3]dioxolo[4,5-g]quinolin-6(5H)-one], 630 nM. Same read-out and setting: then `CC(C)COc1cc(N(C)C)ccc1-c1cc(=O)[nH]c2cc3c(cc12)OCCO3` [FQI2-237, 9-(4-(dimethylamino)-2-isobutoxyphenyl)-2,3-dihydro-[1,4]dioxino[2,3-g]quinolin-7(6H)-one], with 467 nM. As to `CCOc1cc(Br)ccc1-c1cc(=O)[nH]c2cc3c(cc12)OCO3` [FQI2Br, 8-(4-bromo-2-ethoxyphenyl)-[1,3]dioxolo[4,5-g]quinolin-6(5H)-one], the GI50 in the data set on Huh7 cells was found to be 20.4 nM. Same read-out and setting: in the case of `CCOc1cc(Cl)ccc1-c1cc(=O)[nH]c2cc3c(cc12)OCO3` [FQI2Cl, 8-(2-ethoxy-4-chlorophenyl)-[1,3]dioxolo[4,5-g]quinolin-6(5H)-one] it was 56.2 nM; in that of `CCOc1cc(C(F)(F)F)ccc1-c1cc(=O)[nH]c2cc3c(cc12)OCO3` [FQI2F3, 8-(2-ethoxy-4-(trifluoromethyl)phenyl)-[1,3]dioxolo[4,5-g]quinolin-6(5H)-one], 56.2 nM.

As for `CCOc1cc(F)ccc1-c1cc(=O)[nH]c2cc3c(cc12)OCO3` [FQI2F, 8-(2-ethoxy-4-fluorophenyl)-[1,3]dioxolo[4,5-g]quinolin-6(5H)-one], the GI50 with Huh7 cells turned out to be 56.2 nM.

Turning to `CCOc1ccccc1-c1cc(=O)[nH]c2cc3c(cc12)OCO3` [FQI2], the GI50 in the data set on Huh7 cells came to 141 nM. Turning to `CCOc1cc(N(C)C)ccc1C1CC(=O)Nc2cc3c(cc21)OCO3` (stereo not shown) [FQI-34, 8-(4-(dimethylamino)-2-ethoxyphenyl)-7,8-dihydro-[1,3]dioxolo[4,5-g]quinolin-6(5H)-one], the fraction unbound in [1] was 0.05; in data set [2], 0.07. Also, the “interaction of LSF and β-catenin (co-immunoprecipitation)” value on LSF and β-catenin is reported as “consistently reduced this interaction”.

For `CCOc1cc(N(C)C)ccc1C1CC(=O)Nc2cc3c(cc21)OCCO3` (stereo not shown) [FQI-37, 9-(4-(dimethylamino)-2-ethoxyphenyl)-2,3,8,9-tetrahydro-[1,4]dioxino[2,3-g]quinolin-7(6H)-one], the fraction unbound was 0.05 in data set [1] and 0.07 in data set [2]. In addition, the “interaction of LSF and β-catenin (co-immunoprecipitation)” value on LSF and β-catenin is listed as “consistently reduced this interaction”. Regarding `C[C@@H](N)[C@H]1CC[C@H](C(=O)Nc2ccncc2)CC1` [Y-27632], the “FQI1-induced decline in stable microtubules after Y-27632 pre-exposure” value in the data set with FH-B cells [3] (setting [8]) and in the data set with RPE cells [4] (setting [8]) was “quantitatively the same decline in stable microtubules as seen in control cells” throughout. Take `COC(=O)Nc1nc2ccc(C(=O)c3cccs3)cc2[nH]1` [nocodazole, reference compound]: the “migration of cells into the wound” value in the data set on RPE cells [5] was “hindered RPE cells from migrating into the wound”. Moreover, the “microtubule stability and α-tubulin acetylation in the microtubule fraction” value in the data set on FH-B cells [3] (setting [9]) is “destabilizes and deacetylates microtubules”; in the data set with RPE cells [4] (setting [9]), “destabilizes and deacetylates microtubules”. The “decrease in cell spreading area” value with FH-B cells [6] is on record as “decrease in cell spreading area was phenocopied”. The circularity result with RPE cells [7] is recorded as “significantly more circular in shape”.
